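Dose response: 5 concentrations. Exposure: 48 h. Format: 96-well plates. Endpoint: linear interpolation; highest concentration if not reached. GI50 is the concentration that inhibits growth by half. At the TGI there is no net growth.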
Experiments:
Assay in all cases: inhibition of tumour cell growth, NCI panel, 48 h
[1] = system: SK-OV-3 ovarian
[2] = system: SK-MEL-5 melanoma
[3] = system: CCRF-CEM leukemia
[4] = system: ACHN renal
[5] = system: SF-268 CNS
[6] = system: OVCAR-4 ovarian
[7] = system: RXF 393 renal
[8] = system: TK-10 renal
[9] = system: UACC-257 melanoma
[10] = system: IGROV1 ovarian
[11] = system: COLO 205 colon
[12] = system: MDA-MB-468 breast
[13] = system: SW-620 colon
[14] = system: U251 CNS
[15] = system: LOX IMVI melanoma
[16] = system: SN12C renal
[17] = system: K-562 leukemia
[18] = system: NCI/ADR-RES ovarian
[19] = system: SK-MEL-28 melanoma
[20] = system: BT-549 breast
[21] = system: NCI-H226 lung
[22] = system: SF-295 CNS
[23] = system: A498 renal
[24] = system: MALME-3M melanoma
[25] = system: HOP-92 NSCLC
[26] = system: EKVX NSCLC
[27] = system: PC-3 prostate
[28] = system: SK-MEL-2 melanoma
[29] = system: SNB-19 CNS
[30] = system: SR leukemia
[31] = system: MDA-MB-231 breast
[32] = system: A549 NSCLC
[33] = system: UO-31 renal
[34] = system: SNB-75 CNS
[35] = system: HS 578T breast
[36] = system: MCF7 breast
[37] = system: HCT-116 colon
[38] = system: HL-60(TB) leukemia
[39] = system: M14 melanoma
[40] = system: T-47D breast
[41] = system: 786-0 renal
[42] = system: NCI-H460 lung
[43] = system: DU-145 prostate
[44] = system: OVCAR-3 ovarian
[45] = system: HCT-15 colon
[46] = system: HT29 colon
[47] = system: OVCAR-8 ovarian
[48] = system: SF-539 CNS
[49] = system: MDA-MB-435
[50] = system: RPMI-8226 leukemia
[51] = system: KM12 colon
[52] = system: UACC-62 melanoma
[53] = system: MOLT-4 leukemia
[54] = system: NCI-H522 lung
[55] = system: HCC-2998 colon
[56] = system: CAKI-1 renal
[57] = system: OVCAR-5 ovarian
[58] = system: HOP-62 NSCLC
[59] = system: NCI-H23 lung

Q: `O=C(CSc1nnc(-c2ccc(-c3nc4ccccc4[nH]3)cc2)o1)Nc1ccc(Br)cc1` was tested. Which GI50 [1] did it give?
A: 12.1 µM

Q: What about the TGI [1] of the same compound?
A: 34.9 µM

Q: And the GI50 [2]?
A: 4.8 µM

Q: What about the TGI [2] of the same compound?
A: 17.3 µM

Q: And the GI50 [3]?
A: 3.41 µM

Q: And the TGI [3]?
A: 15.8 µM

Q: And the GI50 [4]?
A: 3.55 µM

Q: And the TGI [4]?
A: 12.8 µM

Q: And the GI50 [5]?
A: 2440 nM

Q: And the TGI [5]?
A: 6.61 µM

Q: And the GI50 [6]?
A: 3.23 µM

Q: What about the TGI [6] of the same compound?
A: 12.3 µM

Q: And the GI50 [7]?
A: 2260 nM

Q: What about the TGI [7] of the same compound?
A: 5.82 µM

Q: And the GI50 [8]?
A: 14.8 µM

Q: And the TGI [8]?
A: 29.6 µM

Q: What about the GI50 [9] of the same compound?
A: 4.76 µM

Q: What about the TGI [9] of the same compound?
A: 20.5 µM

Q: And the GI50 [10]?
A: 10.3 µM

Q: What about the TGI [10] of the same compound?
A: 22.6 µM

Q: What about the GI50 [11] of the same compound?
A: 10.6 µM

Q: And the TGI [11]?
A: 30.5 µM

Q: And the GI50 [12]?
A: 6.47 µM

Q: What about the TGI [12] of the same compound?
A: 20.7 µM

Q: And the GI50 [13]?
A: 3.1 µM

Q: And the TGI [13]?
A: 11.6 µM

Q: What about the GI50 [14] of the same compound?
A: 6.78 µM

Q: What about the TGI [14] of the same compound?
A: 20.3 µM

Q: And the GI50 [15]?
A: 1730 nM

Q: And the TGI [15]?
A: 3.48 µM

Q: What about the GI50 [16] of the same compound?
A: 3.4 µM

Q: What about the TGI [16] of the same compound?
A: 12.7 µM

Q: What about the GI50 [17] of the same compound?
A: 3.01 µM

Q: And the TGI [17]?
A: > 100 µM

Q: And the GI50 [18]?
A: 5.14 µM

Q: What about the TGI [18] of the same compound?
A: 19.1 µM

Q: What about the GI50 [19] of the same compound?
A: 2620 nM

Q: What about the TGI [19] of the same compound?
A: 7.91 µM

Q: And the GI50 [20]?
A: 3.03 µM

Q: And the TGI [20]?
A: 7.93 µM

Q: What about the GI50 [21] of the same compound?
A: 2630 nM

Q: And the TGI [21]?
A: 9.59 µM

Q: What about the GI50 [22] of the same compound?
A: 2310 nM

Q: What about the TGI [22] of the same compound?
A: 5.97 µM

Q: What about the GI50 [23] of the same compound?
A: 19 µM

Q: What about the TGI [23] of the same compound?
A: 35.3 µM

Q: What about the GI50 [24] of the same compound?
A: 2370 nM

Q: What about the TGI [24] of the same compound?
A: 6.33 µM

Q: What about the GI50 [25] of the same compound?
A: 3.24 µM

Q: And the TGI [25]?
A: 11.5 µM

Q: What about the GI50 [26] of the same compound?
A: 4.2 µM

Q: What about the TGI [26] of the same compound?
A: 16.3 µM

Q: And the GI50 [27]?
A: 2570 nM

Q: What about the TGI [27] of the same compound?
A: 8.99 µM

Q: What about the GI50 [28] of the same compound?
A: 12.2 µM

Q: And the TGI [28]?
A: 26.4 µM

Q: What about the GI50 [29] of the same compound?
A: 5.36 µM

Q: And the TGI [29]?
A: 18 µM

Q: What about the GI50 [30] of the same compound?
A: 4.57 µM

Q: What about the TGI [30] of the same compound?
A: 40.1 µM

Q: What about the GI50 [31] of the same compound?
A: 4.38 µM

Q: And the TGI [31]?
A: 15.1 µM

Q: And the GI50 [32]?
A: 2400 nM

Q: What about the TGI [32] of the same compound?
A: 6.24 µM

Q: And the GI50 [33]?
A: 5.91 µM

Q: And the TGI [33]?
A: 18.9 µM

Q: What about the GI50 [34] of the same compound?
A: 2000 nM

Q: What about the TGI [34] of the same compound?
A: 7.51 µM

Q: And the GI50 [35]?
A: 3.39 µM

Q: And the TGI [35]?
A: 16.3 µM

Q: What about the GI50 [36] of the same compound?
A: 2880 nM

Q: What about the TGI [36] of the same compound?
A: 12.5 µM

Q: What about the GI50 [37] of the same compound?
A: 3.43 µM

Q: What about the TGI [37] of the same compound?
A: 13.7 µM

Q: And the GI50 [38]?
A: 6.37 µM

Q: What about the TGI [38] of the same compound?
A: 33.1 µM

Q: And the GI50 [39]?
A: 3.82 µM

Q: What about the TGI [39] of the same compound?
A: 17.8 µM

Q: What about the GI50 [40] of the same compound?
A: 3.81 µM

Q: What about the TGI [40] of the same compound?
A: 20.2 µM

Q: What about the GI50 [41] of the same compound?
A: 2170 nM

Q: What about the TGI [41] of the same compound?
A: 4.29 µM

Q: What about the GI50 [42] of the same compound?
A: 1950 nM

Q: What about the TGI [42] of the same compound?
A: 4.54 µM

Q: And the GI50 [43]?
A: 3.2 µM

Q: And the TGI [43]?
A: 10.8 µM

Q: What about the GI50 [44] of the same compound?
A: 2740 nM

Q: And the TGI [44]?
A: 8.95 µM

Q: And the GI50 [45]?
A: 3.66 µM

Q: What about the TGI [45] of the same compound?
A: 15.1 µM

Q: What about the GI50 [46] of the same compound?
A: 2870 nM

Q: What about the TGI [46] of the same compound?
A: 12.8 µM

Q: And the GI50 [47]?
A: 4.11 µM

Q: What about the TGI [47] of the same compound?
A: 15.6 µM

Q: And the GI50 [48]?
A: 2000 nM

Q: What about the TGI [48] of the same compound?
A: 4.7 µM

Q: And the GI50 [49]?
A: 2110 nM

Q: And the TGI [49]?
A: 7.73 µM

Q: And the GI50 [50]?
A: 3.24 µM

Q: And the TGI [50]?
A: 36.1 µM

Q: What about the GI50 [51] of the same compound?
A: 3.98 µM

Q: And the TGI [51]?
A: 18.6 µM

Q: What about the GI50 [52] of the same compound?
A: 4.13 µM

Q: And the TGI [52]?
A: 15.5 µM

Q: And the GI50 [53]?
A: 3.26 µM

Q: And the TGI [53]?
A: 18 µM

Q: And the GI50 [54]?
A: 2740 nM

Q: And the TGI [54]?
A: 14.6 µM

Q: And the GI50 [55]?
A: 12.9 µM

Q: And the TGI [55]?
A: 31.2 µM

Q: What about the GI50 [56] of the same compound?
A: 2030 nM

Q: And the TGI [56]?
A: 4.83 µM

Q: And the GI50 [57]?
A: 6.53 µM

Q: And the TGI [57]?
A: 20.4 µM

Q: What about the GI50 [58] of the same compound?
A: 2880 nM

Q: What about the TGI [58] of the same compound?
A: 8.21 µM

Q: And the GI50 [59]?
A: 3.22 µM

Q: What about the TGI [59] of the same compound?
A: 12.4 µM

Source: PubChem BioAssay (NCI)
